Experimental data published in patent US12440500B2, “Phytoecdysones and the derivatives thereof for use in the treatment of neuromuscular diseases” (BIOPHYTIS, priority 2019, dated 2025).

How the values were obtained:
Format in all cases: in vivo, mouse
[1] = tested on: muscles Soleus, Plantaris and Tibialis of SMA mice; test: Histological analysis of muscle cross-sections (Hematoxylin-Eosin): number and cross-section surface of muscle fibers
Method: At P11, one hour after their last gavage, the treated mice were anaesthetized with pentobarbital 1% at 6 μL/g of mouse then the extensor muscles Soleus, with a mixed typology, extensor Plantaris, with a fast typology, and flexor Tibialis, with a fast typology, were sampled in order to conduct histological or molecular studies. After sampling, the muscles Soleus, Plantaris and Tibialis were included individually in a preservation medium then frozen in cooled isopentane. For each muscle, medial cross-sections 10 μm thick were realized. These sections were stained with Hematoxyline-Eosin, dehydrated and mounted in an inclusion medium. The images of these sections were taken with a microscope (with a magnification ×200). In order to obtain images with an impression of relief, the differential interference contrast technique was used. From these images, the number of muscle fibers of each muscle and the cross-section surface of 20% of these fibers were counted using image processing software (FIG. 2).

ERK = test: Western blot, phosphorylation of ERK in SMA mice
[2] = tested on: motor neurons of the lumbar spinal cord of SMA mice; test: Motor neuron count, location and soma surface (anti-ChAT immunofluorescence, lumbar spinal cord)
Method: A quantitative and qualitative study of the populations of motor neurons on thick cross-sections of the lumbar region of the spinal cord (L1-L5) of healthy control mice or SMA treated with the vehicle or with BIO101 for 11 days was carried out via immunofluorescent labeling with Choline AcetylTransferase (ChAT) such as was described hereinabove (Biondi et al., 2008; Boyer et al., 2013). The analysis was then refined by a study of the different motor neuron sub-populations by characterizing their location in the spinal cord (lateral or medial position), as well as the distribution of the size of their soma.
The anesthetized mice underwent an intracardiac infusion with PBS. The spinal cords of the mice were taken, fixed then rinsed. The lumbar region of the spinal cords (L1-L5) was coated in a 4% solution of agarose. 50 μm cross-sections were made using a vibratome over the entire length of the sample. One section every 5 sections of spinal cord was then used for the immunohistochemical analyses. After a saturation with 0.1M glycine, the tissues were then permeabilized, blocked then marked with a goat polyclonal primary antibody anti-choline acetyltransferase (ChAT) ( 1/400^e). The sections are then washed then incubated with the anti-goat polyclonal secondary antibody coupled with Cyanine 3 (1:400^e). The cores are marked using Bisbenzimide ( 1/1,000^e) then the sections are washed again before being mounted with a photobleaching inhibitor of the fluorescent dyes. The specificity of the marking is verified thanks to a control marking carried out in the absence of the primary antibody.
The images were obtained using a camera mounted on a microscope with a magnification of ×200 and coupled to a central processing unit of the microcomputer type comprising in particular a suitable software for image acquisition. All of the counts were carried out using image processing software.
The quantitative analysis was then refined, on the one hand, by studying the different motor neuron sub-populations by analyzing their location in the spinal cord (lateral or medial position), and on the other hand, by studying the distribution of the surface of their soma.

[3] = tested on: neuromuscular junctions of muscles soleus, plantaris and tibialis of SMA mice; test: Morphological study of neuromuscular junction maturation (immunofluorescence)
SMA mice = test: Open-field test (spontaneous displacement capacities)
Method: Phenotypic analyses of type 2 severe SMA mice treated or not starting from P0 with BIO101 were conducted. Longitudinally every two days, a test was conducted of the motor capacities of the mice from P5 to P9. The inventors evaluated the spontaneous displacement capacities by the open-field test, as well as the muscular fatigability by grip test, such as described hereinabove (Biondi et al., 2008; Branchu et al., 2013; Chali et al., 2016). The device used for the open-field test is different according to the age of the mice. For animals from P0 to P6, it is formed of a 15×15×5 cm plastic box with a grid pattern of the field divided into 25 3 cm×3 cm squares. For animals from P7 to P21, it is formed of a 28×28×5 cm plastic box with a grid pattern of the field divided into 16 7 cm×7 cm squares. The mice were tested individually and the evaluation device was washed after each session. Each mouse initially placed at the center of the field was able to move about freely for 5 minutes. The behavioral measurements are recorded by the experimenter during these 5 minutes and the total number of squares crossed was recorded.

Question: What does the source list for `CC(C)(O)CC[C@@H](O)[C@](C)(O)[C@H]1CC[C@@]2(O)C3=CC(=O)[C@@H]4C[C@@H](O)[C@@H](O)C[C@]4(C)[C@H]3CC[C@]12C` [BIO101, 20-hydroxyecdysone]?
Answer: proportion of muscle fibers with cross-section surface greater than 300 μm^2 ([1]; Plantaris, FIG. 13B): increase; proportion of muscle fibers with cross-section surface less than 200 μm^2 ([1]; Plantaris, FIG. 13B): decrease; atrophy of the muscle fibers (cross-section surface) in relation to healthy control mice ([1]; Plantaris, P11, SMA mice treated P0 to P11 (SMA vehicle 46%)): 17.9%; proportion of fibers with cross-section surface between 0 and 100 μm^2 ([1]; Plantaris, versus SMA vehicle): decrease; proportion of fibers with cross-section surface between 200 and 400 μm^2 ([1]; Plantaris, versus SMA vehicle): increase; proportion of muscle fibers with cross-section surface greater than 300 μm^2 ([1]; Soleus, FIG. 13C): increase; proportion of muscle fibers with cross-section surface less than 200 μm^2 ([1]; Soleus, FIG. 13C): decrease; atrophy of the muscle fibers (cross-section surface) in relation to healthy control mice ([1]; Soleus, P11, SMA mice treated P0 to P11 (SMA vehicle 50.2%)): 37.8%; proportion of fibers with cross-section surface between 100 and 200 μm^2 ([1]; Soleus, versus SMA vehicle): decrease; proportion of fibers with cross-section surface between 200 and 400 μm^2 ([1]; Soleus, versus SMA vehicle): increase; atrophy of the muscle fibers (cross-section surface) in relation to healthy control mice ([1]; Tibialis, P11, SMA mice treated P0 to P11 (SMA vehicle 56.1%)): 32.7%; number of muscle fibers ([1]; Tibialis, SMA mice treated P0 to P11, 50 mg/kg): 2,358 fibers; increase in number of muscle fibers compared to vehicle ([1]; Tibialis, SMA mice treated P0 to P11, p<0.05): 14%; proportion of fibers with cross-section surface between 400 and 800 μm^2 ([1]; Tibialis, versus SMA vehicle): significant increase; proportion of fibers with cross-section surface between 100 and 200 μm^2 ([1]; Tibialis, versus SMA vehicle, p<0.05): decreases significantly; level of phosphorylation of ERK (pERK) (ERK; muscle Plantaris, SMA mice treated P0 to P11): greatly decreased; level of pERK (ERK; spinal cord, SMA mice treated daily for 11 days): decreasing; loss of motor neurons in relation to healthy control mice ([2]; 11 days of daily treatment (SMA vehicle 25%)): 13%; number of motor neurons per section by semi-ventral spinal cord ([2]; 11 days of daily treatment, versus SMA vehicle, p<0.05): significantly higher; effect on the medial motor neurons ([2]; versus SMA vehicle): no significant effect; number of lateral motor neurons ([2]; versus SMA vehicle): higher; number of small motor neurons with a soma surface less than 300 μm^2 ([2]; versus SMA vehicle, p<0.05): significantly limiting; percentage of neuromuscular junctions of the perforated type ([3]; Soleus, treated daily from birth to P10, p<0.05 versus vehicle): 26.5%; percentage of neuromuscular junctions of the perforated type ([3]; Tibialis, treated daily from birth to P10, p<0.05 versus vehicle): 45.7%; percentage of immature plates ([3]; all the muscles tested, treated daily from birth to P10): decrease; percentage of neuromuscular junctions of the perforated type ([3]; muscle plantaris, treated daily from birth to P10, p=ns versus vehicle): 16.3%; number of squares crossed (open-field test) (SMA mice; P5, SMA mice (vehicle 10)): 11 squares; number of squares crossed (open-field test) (SMA mice; P7, SMA mice (vehicle 6), p<0.05): 10 squares; number of squares crossed (open-field test) (SMA mice; P9, SMA mice (vehicle 8), p=ns): 11 squares
